Results on three molecules are retold here after US12275684B2, “Methods for making and using endoxifen” (Atossa Therapeutics, Inc., priority 2017, dated 2025).

Read-outs that look alike come from different tables or passages of the source.

The conditions of series [1]: cited from earlier work; for predicted t90 for 10% conversion to (E)-endoxifen: solid state.
Series [2] in a line: Placebo controlled, dose escalation pharmacokinetic study of oral (Z)-Endoxifen capsules (serum endoxifen; incl. accumulation ratios and dose linearity). The class given is in vivo, human. An excerpt:
An objective of the study was to assess the safety and tolerability of oral (Z)-Endoxifen when administered […] orally as a capsule to healthy female volunteers. A secondary objective was to assess the pharmacokinetics of multiple doses of oral (Z)-Endoxifen in the subjects.
Generally, healthy female volunteers aged ≥18 years and ≤65 years were enrolled. 24 participants were enrolled in 3 cohorts and will be administered study drug orally. Three dose levels of orally administered (Z)-Endoxifen were investigated in 3 cohorts. In each cohort participants were randomized to receive an oral (Z)-Endoxifen or placebo in a blinded fashion. Enteric-resistant capsules used in the study were designed as delayed release capsules to resist rupture for at least 30 minutes, but typically, for about 2 hours, under gastric conditions and then open fully in intestinal fluid (DRCaps; Capsugel, a Lonza Company, USA). Enteric-resistant (Swedish Orange size Zero (0); Capsugel, USA) DRCaps capsules manually filled with 1, 2 or 4 mg of (Z)-endoxifen neat in compliance with GMP requirements were used. Placebo capsules contained microcrystalline cellulose an inert common capsule and tablet excipient.
Each cohort enrolled 8 participants, with 6 participants receiving (Z)-Endoxifen 1 mg capsules orally at 1 mg (Cohort 1), 2 mg (Cohort 2) or 4 mg (Cohort 3) doses and 2 participants receiving matching placebo capsules. In Cohort 1 (Dose Level=1 mg) two participants (sentinels) were dosed 24 hours prior to the remaining participants. One sentinel was dosed with (Z)-Endoxifen and the other with placebo. The remaining six participants in Cohort 1 were dosed as no safety concerns were identified in the sentinel participants. The non-sentinel participants in Cohort 1 were admitted to the clinical research facility at least one day later than the sentinels. There were no sentinels in Cohorts 2 and 3.
Participant engagement in this study was for a period of 56 days. These included a 28 day screening period, and a 7 day post treatment period for Pharmacokinetic (PK) sampling. There were two confinement periods, one at the beginning and one at the end of the dosing periods. Participants were confined to the clinical facility on Days-1 through to Day 2 and Days 21 and 22. If participants were to experience any clinically significant adverse events during the study, they would have been required to remain in the clinical facility for further observation at the discretion of the Principal Investigator (PI).
Healthy female volunteers were screened within 28 days prior to commencement of dosing. Participants were admitted to the clinical facility on Day-1 for up to 3 days. The first dose of (Z)-Endoxifen or placebo capsules was administered on Day 1. Following completion of all safety assessments and sampling for PK analyses, participants were discharged from the clinical facility on Day 2. The first dose on Day 1 was followed by a 6-day treatment free period (Days 2-7). Each participant returned to the clinical facility for PK blood draws and safety assessments during the treatment free period on study Days 4 and 6. On Day 8 participants commenced daily administration of (Z)-Endoxifen capsules or placebo capsules for 14 consecutive days (Days 8-21). Participants were supplied with study drug capsules and asked to self administer daily. Participants visited the clinical facility on Days 11, 14 and 17, prior to dose administration, for PK blood draws and safety assessments. On the morning of Day 21 each participant returned to the clinical facility prior to dose administration and were confined to the facility until Day 22 to allow for the collection of PK blood draws and safety assessments. The Day 21 dose was the last administration of study drug. Participants were discharged from the clinical facility on Day 22 and returned for PK blood draws and safety assessments on study Days 24, 26, and 28. […]

For series [3] the following is noted: cited from earlier work.

Regarding `CC/C(=C(\c1ccc(O)cc1)c1ccc(OCCNC)cc1)c1ccccc1.Cl` [(Z)-endoxifen HCl], the t90 in series [1] (aqueous medium, 45° C.) was 9 days. The “predicted t90 for 10% conversion to (E)-endoxifen” value is given as 53 months in series [1] (25° C./60% RH) and 4.3 months in series [1] (40° C./75% RH).
Take `CC/C(=C(\c1ccc(O)cc1)c1ccc(OCCNC)cc1)c1ccccc1` [Endoxifen]: the “dose linearity β Estimate” value in series [2] (AUC24 hr (log), Day 1) is 0.873; in series [2] (AUC24 hr (log), Day 21) it was 1.008; in series [2] (Cmax (log), Day 1) it was 0.808; in series [2] (Cmax (log), Day 21) it was 1.055.
Regarding `CC/C(=C(\c1ccccc1)c1ccc(OCCN(C)C)cc1)c1ccccc1` [tamoxifen, (Z)-2-[4-(1,2-diphenyl-1-butenyl)phenoxy]-N,N-dimethylethanamine], the “Terminal elimination half life” value in series [3] (in vivo) was 120 to 170 h. Further, the peak concentration time entry in series [3] (post-dose) was “approximately 5 hours”.
